From patent US20030032813A1, “Rhodanine carboxylic acid derivatives for the treatment and prevention of metabolic bone disorders” (Angelika Esswein, Wolfgang Schaefer, and Konrad Honold, priority 1998, published 2003)

Experiments:
adenylate cyclase = test: assay for the capability of stimulating cyclic adenylate cyclase (cAMP formation); assay type: biochemical
Description: Compounds of general formula (I) were investigated in a suitable assay for the capability of stimulating cyclic adenylate cyclase.

| Compound | melting point | % cAMP (Test conc. 50 μM) (adenylate cyclase) [%] |
| --- | --- | --- |
| CC(C)(C)c1cc(C=C2SC(=S)N(C(CC(=O)O)C(=O)O)C2=O)cc(C(C)(C)C)c1O (stereo not drawn) | 240 °C (dec.) |  |
| CC(C)(C)c1cc(C=C2SC(=S)N(CC(=O)O)C2=O)ccc1O [Example 23, [5-(3-tert-Butyl-4-hydroxy-benzylidene)-4-oxo-2-thioxo-thiazolidin-3-yl]-acetic acid] | > 240 °C | 8 |
| O=C(O)CN1C(=O)C(=Cc2ccc(OCc3ccccc3)cc2)SC1=S | 205 to 206 °C |  |
| Cc1[nH]c2ccccc2c1C=C1SC(=S)N(CC(=O)O)C1=O | 268 to 270 °C |  |
| COc1cc(C)c2c(c1C=C1SC(=S)N(CC(=O)O)C1=O)Oc1c(c(C)c(O)c3c1C(O)OC3=O)OC2=O (stereo not drawn) | > 260 °C |  |
| CC(=O)Oc1cc(C=C2SC(=S)N(CC(=O)O)C2=O)cc(OC(C)=O)c1OC(C)=O | 200 °C (dec.) |  |
| CC1C(C=C2SC(=S)N(CC(=O)O)C2=O)=CC=C(O)C1(C)O (stereo not drawn) | > 240 °C |  |
| O=C(O)CN1C(=O)C(=CC2CCN(C(=O)OCc3ccccc3)CC2)SC1=S | 114 to 115 °C |  |
| COc1cccc(C=C2SC(=S)N(CC(=O)O)C2=O)c1 | 193 to 196 °C |  |
| O=C(O)CN1C(=O)C(=CC2=CC=C(OCc3ccccc3)C(O)(O)C2)SC1=S | 178 to 180 °C |  |
| CC(C(=O)O)N1C(=O)C(=Cc2ccc(OCc3ccccc3)cc2)SC1=S (stereo not drawn) | 125 to 128 °C |  |
| O=C(O)CN1C(=O)C(=Cc2ccc(O)cc2)SC1=S | 230 to 232 °C |  |
| O=C(O)CCCCCN1C(=O)C(=Cc2cc(O)c(O)c(O)c2)SC1=S | 212 to 214 °C |  |
| O=C(O)CCC(C(=O)O)N1C(=O)C(=Cc2cc3ccccc3s2)SC1=S (stereo not drawn) | 220 to 221 °C |  |
| O=C(O)CN1C(=O)C(=Cc2cc(OCc3ccccc3)ccc2O)SC1=S | 130 to 133 °C |  |
| CC1=C(C=C2SC(=S)N(CCC(=O)O)C2=O)C(C)(C)CCC1 [Example 59, 3-(4-Oxo-2-thioxo-5-(2,6,6-trimetyl-cyclohex-1-enylmethylene)-thiazolidin-3-yl]-propionic acid] |  | 15 |
| O=C(O)CC(C(=O)O)N1C(=O)C(=Cc2cc3ccccc3s2)SC1=S (stereo not drawn) | 240 °C (dec.) |  |
| CCOc1cc2cc(C=CC=C3SC(=S)N(CC(=O)OC)C3=O)sc2cc1OCC | 211 to 215 °C |  |
| CCCCCc1ccc(C=C2SC(=S)N(CC(=O)O)C2=O)cc1 | 160 to 162 °C |  |

| Compound | melting point | % cAMP (Test conc. 50 μM) (adenylate cyclase) [%] |
| --- | --- | --- |
| CC(C=CC1=C(C)CCCC1(C)C)=CC=C1SC(=S)N(CC(=O)O)C1=O [Example 46, 5-(3-Methyl-5-(2,6,6trimethyl-cyclohex-1-enyl)-penta-2,4-dienyliden]-4-oxo-2-thioxo-thiazolidin-3-yl-acetic acid] | 153 to 155 °C | 30 |
| CC(C)(C)c1cc(C=C2SC(=S)N(C(Cc3ccccc3)C(=O)O)C2=O)cc(C(C)(C)C)c1O (stereo not drawn) [Example 3, 2-[5-(3,5-Di-tert-butyl-4-hydroxy-benzylidene)-4-oxo-2-thioxo-thiazolidin-3-yl]-3-phenyl-propionic acid] | 160 °C (dec.) | 8 |
| COc1cccc(COc2ccc(C=C3SC(=S)N(CC(=O)O)C3=O)cc2)c1 | 191 to 193 °C |  |
| CC(C=CC1=C(C)CCCC1(C)C)=CC=CC(C)=CC=C1SC(=S)N(CC(=O)O)C1=O | 144 °C (dec.) |  |
| O=C(O)CN1C(=O)C(=Cc2ccc3c(c2)CCO3)SC1=S | 246 to 247 °C |  |
| O=C(O)CN1C(=O)C(=CCCc2ccccc2)SC1=S | 108 to 111 °C |  |
| O=C(O)CN1C(=O)C(=Cc2cc(OCc3ccccc3)ccc2OCc2ccccc2)SC1=S | 196 to 198 °C |  |
| O=C(O)CN1C(=O)C(=CC=CC=Cc2cc3ccccc3s2)SC1=S [Example 13, [5-(5-Benzo [b]thiophen-2-yl-penta-2,4-dienylidene)-4-oxo-2-thioxo-thiazolidin-3-yl]-acetic acid] | > 240 °C | 10 |
| CCCCN(CCCC)c1ccc(C=C2SC(=S)N(CC(=O)O)C2=O)cc1 | 186 to 188 °C |  |
| O=C(O)CN1C(=O)C(=Cc2ccc(OCc3ccc4c(c3)OCO4)cc2)SC1=S | 206 to 207 °C |  |
| COc1cc(O)c(C=C2SC(=S)N(CC(=O)O)C2=O)c(OC)c1 | 194 °C (dec.) |  |
| CC(C=CC1=C(C)CCCC1(C)C)=C1SC(=S)N(CCC(=O)O)C1=O [Example 72, 3-5-[1-Methyl-3-(2,6,6-trimethyl-cyclohex-1-enyl)-allylidene]-4-oxo-2-thioxo-thiazolidin-3-yl-propionic acid] |  | 15 |
| CC(C)(C)c1cc(C=C2SC(=S)N(C(CCC(=O)O)C(=O)O)C2=O)cc(C(C)(C)C)c1O (stereo not drawn) | 130 °C (dec.) |  |
| CC(C)(C)c1cc(C=C2SC(=S)N(CCC(=O)O)C2=O)cc(C(C)(C)C)c1O [Example 60, 3-[5-(3,5-Di-tert-butyl-4-hydroxy-benzylidene)-4-oxo-2-thioxo-thiazolidin-3-yl]-propionic acid] | 218 to 219 °C | 20 |
| CC(C)(C)c1cc(C=C2SC(=S)N(CC(=O)O)C2=O)cc(C(C)(C)C)c1O [Example 25, [5-(3,5-Di-tert-butyl-4-hydroxy-benzylidene)-4-oxo-2-thioxo-thiazolidin-3-yl]-acetic acid] | 120 to 121 °C | 40 |
| CC(C)(C)c1cc(C=CC=C2SC(=S)N(CC(=O)O)C2=O)cc(C(C)(C)C)c1O | > 240 °C |  |
| O=C(O)CN1C(=O)C(=Cc2cc3ccccc3s2)SC1=S | 292 to 294 °C |  |
| O=C(O)CN1C(=O)C(=CC=Cc2cc3ccccc3s2)SC1=S [Example 16, [5-(3-Benzo [b]thiophen-2-yl-allylidene)-4-oxo-2-thioxo-thiazoldin-3-yl]-acetic acid] |  | 8 |
| CC(C=CC1=C(C)CCCC1(C)C)=C1SC(=S)N(CC(=O)O)C1=O [Example 22, 5-[1-Methyl-3-[2,6,6-trimethyl-cyclohex-1-enyl)-allylidene]-4-oxo-2-thioxo-thiazolidin-3-yl-acetic acid] | 100 °C (dec.) | 10 |

The next lines start with results.

| melting point | Compound | % cAMP (Test conc. 50 μM) (adenylate cyclase) [%] |
| --- | --- | --- |
| 184 to 188 °C | CC(=C1SC(=S)N(CC(=O)O)C1=O)c1cc(O)cc(O)c1 |  |
| 235 to 236 °C | COc1ccc(C=C2SC(=S)N(CC(=O)O)C2=O)cc1C |  |
| 223 to 225 °C | CCN(CC)C(=O)CN1C(=O)C(=Cc2cc(C(C)(C)C)c(O)c(C(C)(C)C)c2)SC1=S |  |
| 165 to 170 °C | COC(=O)CN1C(=O)C(=Cc2cc(C(C)(C)C)c(O)c(C(C)(C)C)c2)SC1=S |  |
| > 240 °C | CN1C(=O)C(=Cc2cc(C(C)(C)C)c(O)c(C(C)(C)C)c2)SC1=S |  |
| 111 to 120 °C (dec.) | O=C(O)COc1ccc(CC=C2SC(=S)N(CC(=O)O)C2=O)cc1 |  |
| 193 to 253 °C | CC(=O)Oc1ccc(C=C2SC(=S)N(CC(=O)O)C2=O)cc1OC(C)=O |  |
| 159 to 161 °C | O=C(O)CCN1C(=O)C(=Cc2cccc3ccccc23)SC1=S |  |
| 263 °C (dec.) | O=C(O)CN1C(=O)C(=Cc2ccc(O)c(O)c2O)SC1=S |  |
| 140 °C (dec.) | CC(C)(C)c1cc(C=C2SC(=S)N(C(Cc3c[nH]c4ccccc34)C(=O)O)C2=O)cc(C(C)(C)C)c1O (stereo not drawn) |  |
| 174 to 176 °C | O=C(O)CCN1C(=O)C(=Cc2ccc3c(c2)OCO3)SC1=S |  |
| > 260 °C | O=C(O)CN1C(=O)C(=Cc2ccc(O)c(C(=O)O)c2)SC1=S |  |
| 187 to 188 °C | O=C(O)CN1C(=O)C(=Cc2ccc(OCc3ccccc3)c(OCc3ccccc3)c2)SC1=S |  |
| > 240 °C | CC(=O)Nc1ccc2sc(C=C3SC(=S)N(CC(=O)O)C3=O)cc2c1 |  |
| 210 °C (dec.) | CCOc1c(C)cc(C=CC=C2SC(=S)N(CC(=O)O)C2=O)c(C)c1OCC |  |
| 185 to 190 °C | CCOc1c(C)cc(C=C2SC(=S)N(CC(=O)O)C2=O)c(C)c1OCC |  |
| 148 to 150 °C | CCCCCCOc1ccccc1C=C1SC(=S)N(CC(=O)O)C1=O |  |
| 192 to 195 °C | CCC1=C(C=CC(C)=CC=CC=C2SC(=S)N(CC(=O)O)C2=O)C(CC)(CC)CCC1 |  |
| 188 to 191 °C | O=C(O)CCN1C(=O)C(=Cc2ccc(OCc3ccccc3)cc2)SC1=S |  |
| 246 to 248 °C | O=C(O)CCN1C(=O)C(=CC=Cc2cc3ccccc3s2)SC1=S |  |
| 238 to 240 °C | COc1cc(C=C2SC(=S)N(CC(=O)O)C2=O)cc(OC)c1O |  |
| 172 to 173 °C | COc1ccc(COc2ccc(C=C3SC(=S)N(CC(=O)O)C3=O)cc2)cc1 |  |
| 240 °C | COc1cc(C)c(C=C2SC(=S)N(CC(=O)O)C2=O)cc1C |  |
| 277 to 279 °C | Cc1cc(C=C2SC(=S)N(CC(=O)O)C2=O)cc(C)c1O |  |
